Source: patent US20040115150A1, “Cosmetics and treatment method for promoting maturation of cornified envelopes” (priority 2001, published 2004)

How the values were obtained:
[1] = tested on: immature CE (cornified envelope) in stratum corneum; test: CE Maturation Promoting Test, incubation varied to 37° C. and 100% relative humidity for a day; set-up: species or system human
Protocol: (§1) Stratum corneum containing many immature CE's were taken from the subjects suffering from skin troubles such as chapping, by means of tape stripping. To the stratum corneum still adhering to the tapes, a test solution was applied, followed by 4 days' incubation under the conditions of 30° C. in temperature and 70% in humidity. After end of the incubation, a tris-hydrochloric acid buffer solution containing dithiothreitol and sodium dodecylsulfate was added, followed by 10 minutes' heating at 100° C. The insoluble matter was collected by centrifuge at 4000 g for 10 minutes. Addition of the eluate and heating cycle was further repeated to thoroughly remove the soluble component. Thus obtained insoluble matter was used as CE.
Properties of each CE thus isolated were evaluated by the following method: CE was spotted on a piece of slide glass, air-dried and fixed in cold acetone. Hydrating the same with Dulbecco's phosphate buffered saline, it was reacted with mouse anti-human involucrin antibody (NOVOCASTRA Co.) as the primary antibody. Excessive antibody was removed by washing and the residue was reacted with FITC-labeled rabbit anti-mouse immunoglobulin antibody as the secondary antibody. Excessive antibody was removed by washing, and the residue was reacted with Nile Red dye solution, sealed and observed with a fluorescence microscope. The observed images were taken into computer via CCD camera, and the ratio of involucrin positive immature CE and that of Nile Red-positive mature CE were evaluated using an image analysis software (Win Roof) or the like.
Procedures similar to Example 1 were repeated, except that the incubation conditions were varied to 37° C. and 100% (relative humidity) for a day.

[2] = tested on: immature CE (cornified envelope) in stratum corneum; test: CE Maturation Promoting Test (tape-stripped stratum corneum, 4 days' incubation at 30° C., 70% humidity); set-up: species or system human; conditions: test solution applied to tape-stripped stratum corneum, involucrin/Nile Red staining, mean of N = 3, water control 11.7
Protocol: as §1
Properties of each CE thus isolated were evaluated by the following method: CE was spotted on a piece of slide glass, air-dried and fixed in cold acetone. […] Excessive antibody was removed by washing, and the residue was reacted with Nile Red dye solution, sealed and observed with a fluorescence microscope. The observed images were taken into computer via CCD camera, and the ratio of involucrin positive immature CE and that of Nile Red-positive mature CE were evaluated using an image analysis software (Win Roof) or the like.

[3] = Table 3, one day, mean of N = 3, before treatment 28.3, 0.1 M MES buffer pH5.5 control 3.0
[4] = Table 2, one day, mean of N = 3, water control 36.9

| SMILES | Ratio of Immature CE (%) [1, 3] | Ratio of Immature CE (%) [1, 4] | Ratio of Immature CE (%) [2] |
| --- | --- | --- | --- |
| O[C@H](CS)[C@H](O)CS (racemic) [10 mM dithiothreitol, dithiothreitol] | 0.33% | – | – |
| [Ca+2].[Cl-].[Cl-] [1 mM calcium chloride, calcium chloride] | 1.83% | – | – |
| OCC(O)CO [10% glycerin, glycerin] | – | 14.6% | 6.3% |
| C[N+](C)(C)CC(=O)O [10% trimethyl glycine, trimethyl glycine] | – | 9.3% | – |
